Assay: xn = mol fraction of the nth substance listed

CCC#N + COC(C)=O
303.15 K, 101.33 kPa
Conditions | viscosity [mPa·s]
x1 = 0.1119 | 0.35
x1 = 0.2022 | 0.3551
x1 = 0.2958 | 0.3608
x1 = 0.4008 | 0.3657
x1 = 0.4952 | 0.3692
x1 = 0.5946 | 0.3732
x1 = 0.6967 | 0.3773
x1 = 0.7985 | 0.3811
x1 = 0.9022 | 0.3857

CCN1CCCC1=O + O
101 kPa
Conditions | viscosity [mPa·s]
298 K, x1 = 0.5 | 3.855
323 K, x1 = 0.9 | 1.435

CCCCCCCCCCO + CS(C)=O
313 K, 101 kPa
Conditions | viscosity [mPa·s]
x2 = 0.0732 | 5.748
x2 = 0.2168 | 4.662
x2 = 0.3082 | 4.127
x2 = 0.3986 | 3.711
x2 = 0.5096 | 3.248
x2 = 0.5918 | 2.964
x2 = 0.6951 | 2.596
x2 = 0.8064 | 2.203
x2 = 0.9009 | 1.838

Cc1ccc(N)cc1 + O=[N+]([O-])c1ccccc1O
323.1 K, 101 kPa
Conditions | viscosity [mPa·s]
x2 = 0.296 | 1.835
x2 = 0.75 | 2.15

CC(C)CCC[C@@H](C)[C@H]1CC[C@H]2[C@@H]3CC=C4C[C@@H](O)CC[C@]4(C)[C@H]3CC[C@]12C + c1ccccc1
viscosity [mPa·s], 101.33 kPa
Conditions | x1 = 0.00346 | x1 = 0.00447 | x1 = 0.00753 | x1 = 0.008796 | x1 = 0.01276 | x1 = 0.01496 | x1 = 0.01612 | x1 = 0.01894 | x1 = 0.02302
298 K | 0.617 | 0.624 | 0.643 | 0.651 | 0.681 | 0.698 | 0.708 | 0.733 | 0.773
303 K | 0.574 | 0.579 | 0.598 | 0.607 | 0.633 | 0.647 | 0.657 | 0.677 | 0.714
313 K | 0.506 | 0.509 | 0.525 | 0.529 | 0.552 | 0.565 | 0.571 | 0.588 | 0.614
323 K | 0.448 | 0.453 | 0.466 | 0.472 | 0.489 | 0.499 | 0.504 | 0.517 | 0.541

CC(C)[C@@H]1CC[C@@H](C)C[C@H]1O + CCC(O)CO
Conditions | viscosity [mPa·s]
298.15 K, 101.33 kPa, x1 = 0.5 | 88.2

OCCOCCOCCO + CC(C)=O
298.1 K, 101 kPa
Conditions | viscosity [mPa·s]
x1 = 0.2 | 1.038
x1 = 0.4 | 2.75
x1 = 0.5 | 4.48
x1 = 0.6 | 7.168
x1 = 0.8 | 17.04

CCCCCCCCCCO + CCCO
viscosity [mPa·s], 101 kPa
Conditions | 298.15 K | 308.15 K | 318.15 K
x2 = 0.05 | 10.52 | 7.206 | 5.14
x2 = 0.1 | 10.05 | 6.914 | 4.927
x2 = 0.15 | 9.562 | 6.633 | 4.716
x2 = 0.2 | 9.064 | 6.36 | 4.508
x2 = 0.25 | 8.557 | 6.093 | 4.306
x2 = 0.3 | 8.046 | 5.831 | 4.109
x2 = 0.35 | 7.534 | 5.572 | 3.921
x2 = 0.4 | 7.023 | 5.314 | 3.741
x2 = 0.45 | 6.517 | 5.058 | 3.572
x2 = 0.5 | 6.018 | 4.802 | 3.416
x2 = 0.55 | 5.529 | 4.547 | 3.275
x2 = 0.6 | 5.052 | 4.293 | 3.15
x2 = 0.65 | 4.589 | 4.04 | 3.044
x2 = 0.7 | 4.142 | 3.79 | 2.96
x2 = 0.75 | 3.712 | 3.543 | 2.9
x2 = 0.8 | 3.303 | 3.301 | 2.866
x2 = 0.85 | 2.915 | 3.065 | 2.862
x2 = 0.9 | 2.549 | 2.839 | 2.89
x2 = 0.95 | 2.207 | 2.624 | 2.953
